From US9497960B2, “Biocide compositions comprising alkoxylation products of isoamyl alcohol derivatives” (COGNIS IP MANAGEMENT GMBH, priority 2010, dated 2016)

Legend:
[1] = tested on: barley powdery mildew (Blumeria graminis f. sp. hordei); test: Curative greenhouse trial with Opus against barley powdery mildew; type: in vivo, Blumeria graminis f. sp. hordei on barley; conditions: for Infection rate of barley powdery mildew after treatment with fungicides, Opus: curative, Opus 10 g/ha, adjuvant 50 ml/ha, inoculation 2 days prior to application, assessment 14 DAT, barley leaf segments; for Sum of infection rates: sum of Opus (curative) and Amistar (protective) trials
Description: Opus SC125 (BASF) was tested to control barley powdery mildew (BPM) in a curative greenhouse trial, Azoxystrobin SC 250 in a protective trial. In each case, barley was cultivated in a substrate “Frustorder Erde” for three weeks. Each treatment was replicated 14 times. The adjuvant dose rate in each treatment was 50 ml/ha. Inoculation of the leaves with powdery mildew (Blumeria graminis f. sp. hordei) was done 2 days prior to application to test Opus' curative action. From the stem, leaf segments were cut off with a length of 10 cm using the flag leaf (F) and 2nd leaf (F-1). Altogether, the leaves of each were placed on benzimidazol agar i.e. 0.5% Agar with 40 ppm benzimidazol. The concentration of Opus for the leaf application was 10 g/ha. Assessment 14 days after treatment (14 DAT) of the efficacy against powdery mildew was done by counting the mildew pustules per leaf on a length of 7 cm. The assessment of the infection rate was conducted by a trained biologist.

[2] = tested on: barley powdery mildew (BPM); test: Protective trial with Amistar (Azoxystrobin SC 250) against barley powdery mildew; type: in vivo, Blumeria graminis f. sp. hordei on barley; conditions: 5 g/ha azoxystrobin, adjuvant 50 ml/ha, leaves cut 5 h after application, incubation 10 d
Description: Opus SC125 (BASF) was tested to control barley powdery mildew (BPM) in a curative greenhouse trial, Azoxystrobin SC 250 in a protective trial. In each case, barley was cultivated in a substrate “Frustorder Erde” for three weeks. Each treatment was replicated 14 times. The adjuvant dose rate in each treatment was 50 ml/ha. 5 h after application with the equivalent of 5 g/ha azoxystrobin, leaf segments were cut off at a length of 7 cm from the stem. The leaves of the F and F-1 leaf were placed on agar. After the inoculation, the incubation time was 10 d. The assessment of the infection rate was conducted by a trained biologist.

[3] = Foam potential / foam height of aqueous adjuvant solutions; type: physicochemical; conditions: 0.1% aqueous solution/dispersion; Cipac MT 47, Cipac water D
Description: (§1) Definition of “quasistatic”: Static or equilibrium surface tension at an air-liquid interface can be determined by the Du Noüy ring method, the Wilhelmy plate etc. […] To avoid such problems, a dynamic method is used but the frequency is reduced to 0.1 Hz or less, thus close enough to equilibrium conditions. Dynamic surface tension is determined at a frequency of 10 Hz. It was determined at 20° C. with the Krüss Bubble Pressure Tensiometer BP2, available from Krüss GmbH, Borsteler Chaussee 85-99, 22453 Hamburg, Germany. Foam potential was tested with SITA foam tester R-2000, available from SITA Messtechnik GmbH, Gostritzer Str. 61-63, 01217 Dresden, Germany. The results are compiled in Tables 1 and 2

[4] = Dynamic and quasistatic surface tension, Krüss Bubble Pressure Tensiometer BP2; type: physicochemical; conditions: 0.1% in demineralised water, Kruess BP 2, 20° C.; for Surface tension at 10 Hz: dynamic; for Surface tension at 0.1 Hz: quasistatic
Description: as §1

CC(C)CCC(COCCOCCOCCOCCOCCOCCOCCOCCOCCOCCO)C(C)C (centres unmarked) [Example 3, Isoamylguerbet + 10EO]
Infection rate of barley powdery mildew after treatment with fungicides, Opus [1]: 7% | Sum of infection rates [1]: 12% | Infection rate of barley powdery mildew after treatment with fungicides, Amistar [2]: 5% | Foam hight after 1 m [3]: 3 mL | Foam hight after 5 m [3]: 2 mL | Surface tension at 10 Hz [4]: 46 mN/m | Surface tension at 0.1 Hz [4]: 36 mN/m

Isoamylguerbet + 3EO + 3PO [Example 2]
Infection rate of barley powdery mildew after treatment with fungicides, Opus [1]: 8% | Sum of infection rates [1]: 8% | Infection rate of barley powdery mildew after treatment with fungicides, Amistar [2]: 0% | Foam hight after 1 m [3]: 0 mL | Foam hight after 5 m [3]: 0 mL | Surface tension at 10 Hz [4]: 45 mN/m | Surface tension at 0.1 Hz [4]: 32 mN/m

CC(C)CCC(COCCOCCOCCO)C(C)C (centres unmarked) [Example 5, Isoamylguerbet + 3EO]
Infection rate of barley powdery mildew after treatment with fungicides, Opus [1]: 20% | Sum of infection rates [1]: 24% | Infection rate of barley powdery mildew after treatment with fungicides, Amistar [2]: 4% | Foam hight after 1 m [3]: 0 mL | Foam hight after 5 m [3]: 0 mL | Surface tension at 10 Hz [4]: 42 mN/m | Surface tension at 0.1 Hz [4]: 30 mN/m

Isoamylguerbet + 3PO + 3EO [Example 1]
Infection rate of barley powdery mildew after treatment with fungicides, Opus [1]: 3% | Sum of infection rates [1]: 3% | Infection rate of barley powdery mildew after treatment with fungicides, Amistar [2]: 0% | Foam hight after 1 m [3]: 1 mL | Foam hight after 5 m [3]: 0 mL | Surface tension at 10 Hz [4]: 45 mN/m | Surface tension at 0.1 Hz [4]: 28 mN/m

CC(C)CCC(COCCOCCOCCOCCOCCO)C(C)C (centres unmarked) [Example 4, Isoamylguerbet + 5EO]
Infection rate of barley powdery mildew after treatment with fungicides, Opus [1]: 12% | Sum of infection rates [1]: 15% | Infection rate of barley powdery mildew after treatment with fungicides, Amistar [2]: 3% | Foam hight after 1 m [3]: 0 mL | Foam hight after 5 m [3]: 0 mL | Surface tension at 10 Hz [4]: 39 mN/m | Surface tension at 0.1 Hz [4]: 30 mN/m
